Laboratory results as given in BindingDB's records for doi:10.1016/j.bmcl.2009.07.083 (Bristol-Myers Squibb, 2009).

Target: Potassium voltage-gated channel subfamily A member 5 (Homo sapiens, UniProt P22460)
Assay: Inhibition of human Kv1.5 channel expressed in mouse L929 cells

Chain of Potassium voltage-gated channel subfamily A member 5 (P22460 whole entry): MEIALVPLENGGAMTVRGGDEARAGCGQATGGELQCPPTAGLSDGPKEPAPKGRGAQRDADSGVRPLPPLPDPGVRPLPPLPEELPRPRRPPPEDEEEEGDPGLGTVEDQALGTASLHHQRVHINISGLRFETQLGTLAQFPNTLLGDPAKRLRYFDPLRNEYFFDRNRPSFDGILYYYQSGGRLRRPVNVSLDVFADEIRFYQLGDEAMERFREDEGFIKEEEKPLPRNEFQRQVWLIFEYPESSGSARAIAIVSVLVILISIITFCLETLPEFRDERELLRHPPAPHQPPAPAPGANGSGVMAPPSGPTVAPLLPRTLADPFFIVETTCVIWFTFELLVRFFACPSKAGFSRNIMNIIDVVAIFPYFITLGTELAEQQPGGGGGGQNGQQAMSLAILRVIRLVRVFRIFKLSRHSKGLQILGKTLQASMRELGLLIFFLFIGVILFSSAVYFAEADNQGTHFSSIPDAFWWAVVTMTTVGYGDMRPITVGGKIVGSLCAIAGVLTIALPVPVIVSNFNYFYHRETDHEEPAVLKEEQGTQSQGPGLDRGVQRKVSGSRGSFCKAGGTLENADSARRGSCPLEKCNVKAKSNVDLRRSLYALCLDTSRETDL

Compound | IC50
CCCCc1nnc(C2C(C)=Nc3ccnn3C2c2ccc(Cl)c(Cl)c2)o1 (centres undefined) [2-butyl-5-(7-(3,4-dichlorophenyl)-5-methyl-4,7-dihydropyrazolo[1,5-a]pyrimidin-6-yl)-1,3,4-oxadiazole] | > 1000 nM
CC1=Nc2ccnn2C(c2ccc(Cl)c(Cl)c2)C1c1nc2cc(S(=O)(=O)Nc3ccccc3)ccc2n1C (centres undefined) [2-(7-(3,4-dichlorophenyl)-5-methyl-4,7-dihydropyrazolo[1,5-a]pyrimidin-6-yl)-1-methyl-N-phenyl-1H-benzo[d]imidazole-5-sulfonamide] | > 1000 nM
CC1=Nc2ccnn2C(c2ccc(Cl)c(Cl)c2)C1c1nnc(-c2ccccc2)o1 (centres undefined) [2-(7-(3,4-dichlorophenyl)-5-methyl-4,7-dihydropyrazolo[1,5-a]pyrimidin-6-yl)-5-phenyl-1,3,4-oxadiazole] | > 1000 nM
CC(=O)Nc1ccc2c(c1)nc(C1C(C)=Nc3ccnn3C1c1ccc(Cl)c(Cl)c1)n2C (centres undefined) [N-(2-(7-(3,4-dichlorophenyl)-5-methyl-4,7-dihydropyrazolo[1,5-a]pyrimidin-6-yl)-1-methyl-1H-benzo[d]imidazol-5-yl)acetamide] | > 1000 nM

The next lines start with the values.

IC50 | Compound
200 nM | CC1=Nc2ccnn2C(c2ccc(Cl)c(Cl)c2)C1c1nc2cc(C)ccc2n1C (centres undefined) [7-(3,4-dichlorophenyl)-6-(1,5-dimethyl-1H-benzo[d]imidazol-2-yl)-5-methyl-4,7-dihydropyrazolo[1,5-a]pyrimidine]
> 1000 nM | CC1=Nc2ccnn2C(c2ccc(Cl)c(Cl)c2)C1c1nc2cc(S(C)(=O)=O)ccc2n1C (centres undefined) [7-(3,4-dichlorophenyl)-5-methyl-6-(1-methyl-5-(methylsulfonyl)-1H-benzo[d]imidazol-2-yl)-4,7-dihydropyrazolo[1,5-a]pyrimidine]
150 nM | CC1=Nc2ccnn2C(c2ccc(Cl)c(Cl)c2)C1c1nc2c(C)cccc2[nH]1 (centres undefined) [7-(3,4-dichlorophenyl)-5-methyl-6-(7-methyl-1H-benzo[d]imidazol-2-yl)-4,7-dihydropyrazolo[1,5-a]pyrimidine]
> 1000 nM | CC1=Nc2ccnn2C(c2ccc(Cl)c(Cl)c2)C1c1ncc(-c2ccccc2)o1 (centres undefined) [2-(7-(3,4-dichlorophenyl)-5-methyl-4,7-dihydropyrazolo[1,5-a]pyrimidin-6-yl)-5-phenyloxazole]
150 nM | CC1=Nc2ccnn2C(c2ccc(Cl)c(Cl)c2)C1c1nc2cccc(F)c2n1C (centres undefined) [7-(3,4-dichlorophenyl)-6-(7-fluoro-1-methyl-1H-benzo[d]imidazol-2-yl)-5-methyl-4,7-dihydropyrazolo[1,5-a]pyrimidine]
